The test concerns the target MPS1 (Homo sapiens, UniProt P33981). Description: biochemical. On the procedure:
Amplification was performed using the forward oligonucleotide:
The inhibitory activity of putative kinase inhibitors and the potency of selected compounds were determined using a trans-phosphorylation assay.
Three cycles of mixing are done immediately after the addition of the resin.

pIC50: −log10 of the molar value.

Chain of MPS1 (P33981 2-857): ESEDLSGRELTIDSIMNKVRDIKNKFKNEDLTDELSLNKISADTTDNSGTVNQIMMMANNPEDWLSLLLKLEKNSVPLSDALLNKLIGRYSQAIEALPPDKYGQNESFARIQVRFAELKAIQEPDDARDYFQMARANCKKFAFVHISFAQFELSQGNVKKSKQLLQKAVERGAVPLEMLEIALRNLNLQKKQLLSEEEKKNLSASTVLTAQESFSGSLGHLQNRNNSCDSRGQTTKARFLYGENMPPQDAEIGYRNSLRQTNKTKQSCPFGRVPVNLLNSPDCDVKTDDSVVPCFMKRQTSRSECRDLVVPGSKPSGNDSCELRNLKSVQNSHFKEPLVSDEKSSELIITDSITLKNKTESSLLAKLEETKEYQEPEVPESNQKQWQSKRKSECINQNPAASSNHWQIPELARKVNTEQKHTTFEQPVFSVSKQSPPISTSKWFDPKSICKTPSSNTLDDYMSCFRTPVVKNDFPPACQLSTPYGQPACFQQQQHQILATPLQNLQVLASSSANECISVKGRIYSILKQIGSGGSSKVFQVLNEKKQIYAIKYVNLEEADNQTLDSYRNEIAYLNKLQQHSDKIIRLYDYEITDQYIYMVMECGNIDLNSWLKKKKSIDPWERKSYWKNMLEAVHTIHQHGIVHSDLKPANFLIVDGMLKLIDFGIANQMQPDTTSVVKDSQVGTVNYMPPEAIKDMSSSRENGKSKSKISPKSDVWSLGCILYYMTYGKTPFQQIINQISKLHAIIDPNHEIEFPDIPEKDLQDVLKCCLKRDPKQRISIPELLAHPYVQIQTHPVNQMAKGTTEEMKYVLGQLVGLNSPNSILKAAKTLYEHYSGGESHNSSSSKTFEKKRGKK

The term pIC50 denotes −log10 of the IC50, conventionally taken in molar units. `CCc1cccc(CC)c1NC(=O)c1cc(-c2ccnc(Nc3ccc(C(=O)N(C)C)cc3C)n2)n(C)c1` [Compound 14, 5-[2-(4-Dimethylcarbamoyl-2-methyl-phenylamino)-pyrimidin-4-yl]-1-methyl-1H-pyrrole-3-carboxylic acid (2,6-diethyl-phenyl)-amide] had a pIC50 of 7.39.
Consider `CCc1cccc(CC)c1NC(=O)c1cc(-c2nc(Nc3ccc(C(N)=O)cc3C)ncc2Cl)n(C)c1Cl` [Compound 21, 5-[2-(4-Carbamoyl-2-methyl-phenylamino)-5-chloro-pyrimidin-4-yl]-2-chloro-1-methyl-1H-pyrrole-3-carboxylic acid (2,6-diethyl-phenyl)-amide], for which the pIC50 was 7.66.
As for `CCc1cccc(CC)c1NC(=O)c1cc(-c2nc(Nc3ccc(C(=O)N4CCC(N(C)C)CC4)cc3C)ncc2C)n(C)c1` [Compound 31, 5-{2-[4-(4-Dimethylamino-piperidine-1-carbonyl)-2-methyl-phenylamino]-5-methyl-pyrimidin-4-yl}-1-methyl-1H-pyrrole-3-carboxylic acid (2,6-diethyl-phenyl)-amide], the figure is 7.17; as for `CCc1cccc(CC)c1NC(=O)c1cc(-c2ccnc(Nc3ccc(N(C)CCCN(C)C)cc3OC)n2)n(C)c1` [Compound 32, 5-(2-{4-[(3-Dimethylamino-propyl)-methyl-amino]-2-methoxy-phenylamino}-pyrimidin-4-yl)-1-methyl-1H-pyrrole-3-carboxylic acid (2,6-diethyl-phenyl)-amide], 6.96.
`COc1cc(N2CCN(C)CC2)ccc1Nc1nccc(-c2cc(C(=O)Nc3c(C)cccc3Cl)cn2C)n1` [Compound 37, 5-{2-[2-Methoxy-4-(4-methyl-piperazin-1-yl)-phenylamino]-pyrimidin-4-yl}-1-methyl-1H-pyrrole-3-carboxylic acid (2-chloro-6-methyl-phenyl)-amide]: the pIC50 is 7.08.

Source of the values: patent publication US8772280B2, “N-aryl-2-(2-arylaminopyrimidin-4-yl)pyrrol-4-carboxamide derivatives as MPS1 kinase inhibitors” (Nerviano Medical Sciences S.R.L., priority 2009, dated 2014).
